Laboratory results from paper PMC11840258, “Detection of chimeric alpha-defensin transcripts and peptides in mouse Paneth cells” (Frontiers in Immunology, 2025).
No end group written: not given here.

What was measured:
Format in all cases: cell-based
[1] = system: E. coli, C. rodentium, S. nepalensis, E. fecalis; assay: Anti-bacterial activity assay, over the four bacterial species; settings: 1U = dose needed to kill 50% of the bacteria (IC50)
Procedure: (§1) Antimicrobial essays for the synthetic proteins were performed against Escherichia coli, Staphylococcus nepalensis, Enterococcus fecalis and Citrobacter rodentium. The first three species are common in small intestine in mice (where Paneth cells are relevant), while C. rodentium is a common pathogen in mice. To obtain cultures of the first three species, C57BL/6J mice were euthanized, ileum content harvested and diluted in sterile PBS and plated out on standard LB plates, overnight. Colonies were picked and species identified using Maldi-Toff [as previously described ([19])]. The relevant pure colonies of these three species were then grown on plates, identified once again, and grown in liquid LB and frozen at -80°C. The C. rodentium culture was strain ICC 169 and was obtained from ATCC.
Bacteria were grown in LB broth at 37°C in an incubation shaker (100rpm) until and OD between 0.8-1. For each peptide, a dilution set (800 µl/peptide) derived from the stock solution was prepared in such manner to obtain a final volume of 1 ml with peptide concentrations of 20 µg/ml, 10 µg/ml, 4 µg/ml and 2 µg/ml. Bacteria grown in LB broth where diluted to OD 0.2. For each bacterium, 200 µl of the OD 0.2 solution was added to each of the peptide dilutions and incubated at 37°C for four hours at 55 rpm. […] The plates were incubated at 37°C overnight after which colonies per plate were counted and tabulated. […]

[2] = system: Escherichia coli; assay: Anti-bacterial activity assay (colony counts after peptide titration); settings: 1U = dose needed to kill 50% of the bacteria (IC50); peptide 20, 10, 4, 2 µg/ml; 4 h at 37°C; colonies counted on LB agar; logistic 4 parameter model (drda); isolate from mouse ileum; means of two independent experiments
Procedure: as §1
(§2) Bacteria were grown in LB broth at 37°C in an incubation shaker (100rpm) until and OD between 0.8-1. For each peptide, a dilution set (800 µl/peptide) derived from the stock solution was prepared in such manner to obtain a final volume of 1 ml with peptide concentrations of 20 µg/ml, 10 µg/ml, 4 µg/ml and 2 µg/ml. Bacteria grown in LB broth where diluted to OD 0.2. For each bacterium, 200 µl of the OD 0.2 solution was added to each of the peptide dilutions and incubated at 37°C for four hours at 55 rpm. After incubation 100 µl of the incubated mixture was plated out on LB agar plates at two concentrations: undiluted and 1:10 diluted. The plates were incubated at 37°C overnight after which colonies per plate were counted and tabulated. The highest plated out concentration that still had individually distinguishable colonies was used.
(§3) The R package “drda” ([20]) was used to perform a dose-response analysis using the logistic 4 parameter model. The concentration that inhibits growth by 50%, IC50, was obtained from the models for each combination of bacterium and peptide and converted into per peptide specific activity.

[3] = system: Enterococcus fecalis; assay: as above; settings: 1U = dose needed to kill 50% of the bacteria (IC50); peptide 20, 10, 4, 2 µg/ml; 4 h at 37°C; colonies counted on LB agar; logistic 4 parameter model (drda); isolate from mouse ileum; means of two independent experiments
Procedure: as §1, §2, §3

[4] = system: Staphylococcus nepalensis; assay: as above; settings: 1U = dose needed to kill 50% of the bacteria (IC50); peptide 20, 10, 4, 2 µg/ml; 4 h at 37°C; colonies counted on LB agar; logistic 4 parameter model (drda); isolate from mouse ileum; means of two independent experiments
Procedure: as §1, §2, §3

[5] = system: Citrobacter rodentium strain ICC 169; assay: as above; settings: 1U = dose needed to kill 50% of the bacteria (IC50), peptide 20, 10, 4, 2 µg/ml, 4 h at 37°C, colonies counted on LB agar, logistic 4 parameter model (drda), means of two independent experiments
Procedure: as §1, §2, §3

| Substance | Specific activity of cell killing, Mean [1] [U/mg] | Specific activity of cell killing, E. coli [2] [U/mg] | Specific activity of cell killing, E. fecalis [3] [U/mg] | Specific activity of cell killing, S. nepalensis [4] [U/mg] | Specific activity of cell killing, C. rodentium [5] [U/mg] |
| --- | --- | --- | --- | --- | --- |
| Defa24: custom-synthesized mature peptide of parental mouse α-defensin Defa24 (LRDLVCYCRARGCKGRERMNGTCSKGHLLYMLCC; ends and bridges not checked; cysteine pairing not given here; UniProt Q5G865 59-92, looked up) | 58 | 122 | 23 | 8 | 77 |
| Defa31: custom-synthesized mature peptide of parental mouse α-defensin Defa31 (PRCPPCPRCSWCPRCPTCPRCNCNPK; ends and bridges not checked; cysteine pairing not given here; UniProt P50715 66-91, looked up) | 334 | 397 | 189 | 437 | 314 |
